Consider ten compounds from patent US10294202B2, “Pyrrolidinones as herbicides” (FMC Corporation, priority 2013, dated 2019).

Each structure is given as a SMILES string.

In one assay the test system is cocklebur. The assay can be described thus: Test E preemergence herbicide test. Also on record: key: 0 = no effect, 100 = complete control. The assay is classed as in vivo, Xanthium strumarium. The text has this: Seeds of plant species selected from corn (Zea mays), soybean (Glycine max), velvetleaf (Abutilon theophrasti), lambsquarters (Chenopodium album), wild poinsettia (Euphorbia heterophylla), pigweed, palmer (palmer pigweed, Amaranthus palmeri), waterhemp (common waterhemp, Amaranthus rudis), surinam grass (Brachiaria decumbens), crabgrass, large (large crabgrass, Digitaria sanguinalis), crabgrass, Brazil (Brazilian crabgrass, Digitaria horizontalis), panicum, fall (fall panicum, Panicum dichotomiflorum), foxtail, giant (giant foxtail, Setaria faberii), foxtail, green (green foxtail, Setaria viridis), goosegrass (Eleusine indica), johnsongrass (Sorghum halepense), ragweed (common ragweed, Ambrosia elatior), barnyardgrass (Echinochloa crus-galli), sandbur (southern sandbur, Cenchrus echinatus), arrowleaf […] rhombifolia), ryegrass, Italian (Italian ryegrass, Lolium multiflorum), dayflower, VA (Virginia dayflower, Commelina virginica), field bindweed (Convolvulus arvensis), morningglory (Ipomoea coccinea), nightshade (eastern black nightshade, Solanum ptycanthum), kochia (Kochia scoparia), nutsedge, yellow (yellow nutsedge, Cyperus esculentus), cocklebur (common cocklebur, Xanthium strumarium), smartweed (ladysthumb smartweed, Polygonum Persicaria) and beggarticks (hairy beggarticks, Bidens pilosa), were planted into a silt loam soil and treated preemergence with test chemicals formulated in a non-phytotoxic solvent mixture which included a surfactant. Treated plants and controls were maintained in a greenhouse for 21 days, after which time all species were compared to controls and visually evaluated. Plant response ratings, summarized in Table E, are based on a scale of 0 to 100 where 0 is no effect and 100 is complete control. A dash (-) response means no test result.

The next assay relates to redstem. The assay can be described thus: Test F flood (paddy) test. To be noted: 21 d, scale 0-100. Type of assay: in vivo, Ammannia coccinea. The text has this:
(§1) Three plastic pots (ca. 16-cm diameter) per rate were partially filled with sterilized Tama silt loam soil comprising a 35:50:15 ratio of sand, silt and clay and 2.6% organic matter. Separate plantings for each of the three pots were as follows. Seeds from the U.S. of monochoria (Monochoria vaginalis), sedge, umbrella (small-flower umbrella sedge, Cyperus difformis), bulrush, […] bulrush, Scirpus juncoides), and […] (purple […] coccinea), were planted into one 16-cm pot for each rate. Seeds from the U.S. of flatsedge, rice (rice flatsedge, Cyperus iria), sprangletop, Brdd. (bearded sprangletop, Leptochloa fascicularis), one stand of 9 or 10 water seeded rice seedlings (Rice, W.S. Jap, Oryza sativa cv. 'Japonica-[…]' or Rice, W.S. Ind, 'Indica'), and two stands of 3 or 4 seedlings of rice, transplanted (transplanted rice, Oryza sativa cv. 'Japonica-[…]') were planted into one 16-cm pot for each rate. Seeds from the U.S. of barnyardgrass (Echinochloa crus-galli), […] (common […], Alisma plantago-aquatica), and watergrass, late (late watergrass, Echinochloa oryzicola) were planted into one 16-cm pot for each rate. Plantings were sequential so that crop and weed species were at the 2.0 to 2.5-leaf stage at time of treatment. Potted plants were grown in a greenhouse with day/night temperature settings of 30/27° C., and supplemental balanced lighting was provided to maintain a 16-h photoperiod. Test pots were maintained in the greenhouse until test completion. At time of treatment, test pots were flooded to 3 cm above the soil surface, treated by application of test compounds directly to the paddy water, and then maintained at that water depth for the duration of the test. Effects of treatments on rice and weeds were visually evaluated by comparison to untreated controls after 21 d. Plant response ratings, summarized in Table F, are based on a scale of 0 to 100 where 0 is no effect and 100 is complete control. A dash (-) response means no test result.

A further assay concerns flatsedge, rice. The assay can be described thus: Test F flood (paddy) test. The assay is classed as in vivo, Cyperus iria. Particulars: 21 d, scale 0-100.
Source text: as §1

The next assay deals with windgrass. The assay can be described thus: Test C postemergence herbicide test. The assay is classed as in vivo, Apera spica-venti. The text has this: (§2) At the same time, plants selected from these crop and weed species and also barley (winter barley, Hordeum vulgare), […]), chickweed (common chickweed, Stellaria media), deadnettle (henbit deadnettle, Lamium amplexicaule), and canarygrass (littleseed canarygrass, Phalaris minor) were planted in pots containing Redi-Earth® planting medium (Scotts Company, 14111 Scottslawn Road, Marysville, Ohio 43041) comprising spaghnum peat moss, vermiculite, wetting agent and starter nutrients and treated with postemergence applications of test chemicals formulated in the same manner. Plants ranged in height from 2 to 18 cm (1- to 4-leaf stage) for postemergence treatments. Treated plants and controls were maintained in a greenhouse for 13 to 15 days, after which time all species were compared to controls and visually evaluated. Plant response ratings, summarized in Table C, are based on a scale of 0 to 100 where 0 is no effect and 100 is complete control. A dash (-) response means no test result.

The next assay deals with canarygrass. Kind of assay: Test C postemergence herbicide test. The assay is classed as in vivo, Phalaris minor.
Source text: as §2

Where [1] appears, read: 31 g ai/ha, scale 0 (no effect) to 100 (complete control).
The mark [2] stands for this setting: 62 g ai/ha, scale 0 to 100 (0 no effect, 100 complete control).
Setting [3] is: 125 g ai/ha, scale 0 to 100 (0 no effect, 100 complete control).
[4] abbreviates: 250 g ai/ha, scale 0 to 100 (0 no effect, 100 complete control).
[5] abbreviates: 16 g ai/ha, scale 0 to 100 (0 no effect, 100 complete control).

In the case of `O=C1NCC(c2ccc(Cl)c(Cl)c2)C1C(=O)Nc1ccccc1F` (racemic) [Compound 14], the “Plant response rating, Cocklebur” value in the assay on cocklebur (62 g ai/ha), in the assay with cocklebur (125 g ai/ha) and in the assay with cocklebur (250 g ai/ha) was 0 each time.
Take `O=C1NCCC1C(=O)N(c1ccc(F)c(F)c1)c1ccccc1F` (stereo not drawn) [Compound 5, N-(3,4-difluorophenyl)-N-(2-fluorophenyl)-2-oxo-3-pyrrolidinecarboxamide]: the “Plant response rating, Redstem” value with redstem (125 g ai/ha) was found to be 0; in the assay with redstem (250 g ai/ha), 0; with redstem (500 g ai/ha) it was 40; with redstem (1000 g ai/ha), 45; with redstem (2000 g ai/ha), 45. For the same compound, the “Plant response rating, Flatsedge, Rice” value is on record as 0 in the assay on flatsedge, rice (125 g ai/ha); 0 with flatsedge, rice (250 g ai/ha); 0 in the assay with flatsedge, rice (500 g ai/ha); 0 in the assay with flatsedge, rice (1000 g ai/ha); 0 in the assay on flatsedge, rice (2000 g ai/ha).
For `O=C1NCC(c2ccc(F)c(F)c2)C1C(=O)Nc1cccc(F)c1F` (stereo not drawn) [Compound 17, N-(2,3-difluorophenyl)-4-(3,4-difluorophenyl)-2-oxo-3-pyrrolidinecarboxamide], the “Plant response rating, Windgrass” value in the assay on windgrass (setting [1]), in the assay with windgrass (setting [2]), with windgrass (setting [3]) and with windgrass (setting [4]) was 0 in each case. Also, the “Plant response rating, Cocklebur” value in the assay with cocklebur (16 g ai/ha), in the assay with cocklebur (31 g ai/ha), in the assay on cocklebur (62 g ai/ha) and in the assay with cocklebur (125 g ai/ha) was 0 in each case. Moreover, the “Plant response rating, Redstem” value is 0 in the assay with redstem (125 g ai/ha); 0 in the assay on redstem (250 g ai/ha); 0 with redstem (500 g ai/ha); 35 with redstem (1000 g ai/ha); 40 with redstem (2000 g ai/ha). In addition, the “Plant response rating, Flatsedge, Rice” value in the assay with flatsedge, rice (125 g ai/ha) was 20; in the assay on flatsedge, rice (250 g ai/ha), 20; with flatsedge, rice (500 g ai/ha), 20; in the assay on flatsedge, rice (1000 g ai/ha) it was 35; with flatsedge, rice (2000 g ai/ha), 40. The “Plant response rating, Canarygrass” value with canarygrass (setting [1]), in the assay on canarygrass (setting [2]), with canarygrass (setting [3]) and in the assay with canarygrass (setting [4]) was 0 each time.
Regarding `O=C1NCC(c2cc(F)c(F)c(F)c2)C1C(=O)Nc1cccc(F)c1F` (stereo not drawn) [Compound 48], the “Plant response rating, Windgrass” value in the assay on windgrass (setting [5]), with windgrass (setting [1]), with windgrass (setting [2]) and in the assay on windgrass (setting [3]) was 0 each time. Moreover, the “Plant response rating, Canarygrass” value with canarygrass (setting [5]), with canarygrass (setting [1]), in the assay with canarygrass (setting [2]) and in the assay with canarygrass (setting [3]) was 0 in each case.
As to `O=C1NCC(c2cc(F)c(F)cc2F)C1C(=O)Nc1cccc(F)c1F` (stereo not drawn) [Compound 50], the “Plant response rating, Windgrass” value with windgrass (setting [1]), with windgrass (setting [2]), in the assay on windgrass (setting [3]) and in the assay on windgrass (setting [4]) was 0 each time. For the same compound, the “Plant response rating, Canarygrass” value in the assay on canarygrass (setting [1]), in the assay with canarygrass (setting [2]), in the assay on canarygrass (setting [3]) and in the assay on canarygrass (setting [4]) was 0 in each case.
For `O=C1NCC(c2ccc(Cl)c(F)c2)C1C(=O)Nc1cccc(F)c1F` (stereo not drawn) [Compound 52], the “Plant response rating, Windgrass” value in the assay with windgrass (setting [1]) stood at 0; in the assay on windgrass (setting [2]), 0; with windgrass (setting [3]), 20; in the assay with windgrass (setting [4]), 20. Also, the “Plant response rating, Canarygrass” value with canarygrass (setting [1]), in the assay on canarygrass (setting [2]), with canarygrass (setting [3]) and in the assay with canarygrass (setting [4]) was 0 each time.
On to `O=C1NCC(c2ccc(F)c(Cl)c2)C1C(=O)Nc1ccccc1F` (stereo not drawn) [Compound 60], for which the “Plant response rating, Windgrass” value in the assay with windgrass (setting [1]), with windgrass (setting [2]) and with windgrass (setting [3]) was 0 in each case. Besides, the “Plant response rating, Canarygrass” value in the assay with canarygrass (setting [1]), with canarygrass (setting [2]) and with canarygrass (setting [3]) was 0 in each case.
For the compound `O=C1NCC(c2ccc(C(F)(F)F)cc2)C1C(=O)Nc1cccc(F)c1F` (stereo not drawn) [Compound 80, N-(2,3-difluorophenyl)-2-oxo-4-[4-(trifluoromethyl)phenyl]-3-pyrrolidinecarboxamide], the “Plant response rating, Cocklebur” value with cocklebur (16 g ai/ha), in the assay on cocklebur (62 g ai/ha), in the assay on cocklebur (125 g ai/ha) and with cocklebur (250 g ai/ha) was 0 each time.
Regarding `O=C1NC[C@H](c2cccc(C(F)(F)F)c2)[C@H]1C(=O)Nc1cccc(F)c1F` [Compound 206], the “Plant response rating, Cocklebur” value in the assay on cocklebur (31 g ai/ha), in the assay with cocklebur (62 g ai/ha), with cocklebur (125 g ai/ha) and with cocklebur (250 g ai/ha) was 0 throughout.
In the case of `CN1CC(c2ccc(F)c(F)c2)C(C(=O)Nc2cccc(F)c2F)C1=O` (stereo not drawn) [Compound 303], the “Plant response rating, Redstem” value in the assay on redstem (62 g ai/ha) is 0; in the assay with redstem (125 g ai/ha), 0; with redstem (250 g ai/ha), 0; in the assay on redstem (500 g ai/ha) it was 30. The “Plant response rating, Flatsedge, Rice” value was 0 with flatsedge, rice (62 g ai/ha); 0 with flatsedge, rice (125 g ai/ha); 0 in the assay with flatsedge, rice (250 g ai/ha); 0 with flatsedge, rice (500 g ai/ha).
